According to patent US5393786A, “Method for treating inflammation, ischemia-induced cell damage and muscular dystrophy” (priority 1993, dated 1995):
Read-outs that look alike come from different tables or passages of the source.

How the values were obtained:
[1] = test system: adjuvant-induced arthritis (uninjected hind paw); assay: Developing Adjuvant-Induced Arthritis Test in Rats; assay type: in vivo, male Lewis-Wistar rats; conditions: po, 720 h, AUC days 16-30
[2] = test system: striatal cell layer of the striatum; assay: Stroke model in rats (four-vessel occlusion), striatal damage; assay type: in vivo, male Wistar rats
From the text: (§1) Strokes were produced in rats by occluding the four arteries that supply blood to the brain according to the following procedure. Male Wistar rats (250-280 g; Hilltop Laboratories, Scottsdale, Pa.) were anesthetized with metofane and placed into a stereotaxic instrument. A longitudinal incisio was made on the dorsal surface of the neck. The neck muscles were reflected to expose the dorsal surface of the spinal column. The two vertebral arteries were exposed where they pass through the first cervica vertebra. Both arteries were permanently occluded by the application of electrocautery. After coagulation of the vertebral arteries, the rat was removed from the stereotaxic instrument and the surgical wound was sutured. Two longitudinal incisions were then made on the ventral surface of the neck. The two common carotid arteries were exposed and dissected free from surrounding nerves and connective tissue. Reversible atraumatic clamps, fabricated mainly from silicon rubber tubing, were placed around each carotid artery in a manner such that the vessels were not traumatize or occluded. The clamps were externalized through the ventral neck incision. A suture was also placed through the neck dorsal to the carotids, esophagus and trachea, and tied loosely behind the neck. This suture is tied tightly at the time ischemia is induced in order to restrict collateral circulation reaching the brain through the dorsal muscles of the neck. The surgical wounds were then closed. After the surgery, the rats were allowed to recover for 24 hours (free access to water, but no food during this period).
(§2) On the day of testing, test compounds were administered at various times before stroke induction. Strokes (cerebral ischemia) were induced by tightening the clamps around the carotids, thereby stopping blood flow in the carotids. Rats in which strokes were successfully produced lost the righting reflex and became unresponsive to stimuli. Collateral circulatio through the dorsal neck muscles was then restricted by tightening the previously implanted suture. […] After 30 minutes of ischemia, the carotid clamps wer released, the neck suture was loosened, and blood flow to the brain was restored. Following the period of ischemia, the rats were allowed free access to food and water. Rats were again treated with test compounds at various times after the stroke. On the third day after the stroke the animals were sacrificed and their brains were removed, frozen and sectioned through the striatum and hippocampus. Sections were mounted on glass slides and stained with hematoxylin and eosin.
(§3) Two of the areas of the brain that are most susceptible to ischemia induce damage, both in rats and humans, are the CA1 pyramidal cell layer of the hippocampus and the striatal cell layer of the striatum. In animals that remain unresponsive for the 30 minute period of ischemia, the CA1 pyramidal cell layer and the striatal cell layer are completely destroyed. These layers of cells were examined microscopically in histological sections prepared from the hippocampus and striatum. Brain damage was rated according to the following scale:
(§4) 0=no damage, completely intact cell layer
(§5) 1=mild damage, onethird of cell layer dead
(§6) 2=moderate damage, twothirds of cell layer dead
(§7) 3=severe damage, complete destruction of cell layer
(§8) Damage in 10-12 sections from each brain was assessed in order to obtain a accurate estimate of damage. An average damage score was calculated for each treatment group. Scores from treated groups were compared statistically with scores from control groups which received only the vehicle used to suspend the compounds. The level of significance was determined using the Mann WhitneyU-test.

[3] = test system: ischemia-induced cell damage caused by middle cerebral artery occlusion; assay: Middle Cerebral Artery Occlusion Stroke Model; assay type: in vivo, male spontaneously hypertensive rats; conditions: saline
From the text: Strokes were also produced in rats by occluding the middle cerebral artery according to the following procedure. Male spontaneously hypertensive rats were housed in groups of three to four per cage and allowed free access to food and water. The animals were anesthetized with a mixture of 2.5% halothane and air. The anesthetized rats then underwent the following surgical procedure.
A femoral artery of each rat was cannulated to monitor mean arterial pressure and a jugular cannula was inserted in order to provide a means for administering test compounds intravenously. […] The ventral neck area and the area behind each animal's right eye were shaved and washed with antiseptic solution. The right common carotid artery was dissected free of connective tissue through a midline cervical incision and the vessel permanently occluded with a silk ligature. Next, a 1 cm incision perpendicular to, and bisecting a line between the lateral canthus of the right eye and the external auditory canal, was made to expose the temporalis muscle which was retracted and partially excised. Using a dissecting microscope, the right middle cerebral artery was exposed through a 2 mm burr hole drilled 2-3 mm rostral to the fusion of the zygomatic arch with a squamosal bone. Drilling was done under a continuous drip of a 0.9% saline solution to prevent heat injury of the underlying cortex. The dura was cut and retracted to expose the middle cerebral artery.
This artery was occluded in two ways. The first method of occlusion involved permanent cauterization of the artery so that blood flow through the artery was completely eliminated. The second method of occulsion was only temporary (lasting two hours) and involved clamping the artery with microaneurism clips. Test compounds were administered at various times before, during and after occlusion. Each animal's body temperature was maintained at 37° C. during testing using a rectal thermometer connected to a heating pad.
Twenty-four hours after tandem middle cerbral carotid artery occlusion, the test animals were sacrificed and their brains removed and frozen over dry ice. Coronal sections 20 microns thick were cut at half millimeter intervals in a cryostat at -20° C. and dried on a hot plate at 60° C. The sections were then stained with cresyl violet. […] A total infarct volume was then calculated using a computer program that summed all sectional areas measured multiplied by the interval thickness. The lower the infarcted volume obtained, the lower the amount of cell damage caused by the stroke. The level of significance was obtained using Student's "t-test".

[4] = test system: hippocampal CA1 pyramidal cell layer; assay: Stroke model in rats (four-vessel occlusion), hippocampal CA1 damage
From the text: as §1, §2, §3, §4, §5, §6, §7, §8

[5] = test system: dystrophic mice (dy/dy); assay: Muscular Dystrophy Animal Model, life span of dystrophic mice; assay type: in vivo; conditions: 0.03 wgt % of compound in diet; control 73 days
Protocol: Dystrophic mice (dy/dy) were obtained from Jackson Laboratories after weaning (approximately 21 days) and treatment with the compound shown in Table IV was begun at the first sign of dystrophy. The compound was administered in the diet and lifespan was measured during the course of treatment. The food and water sources were located in different parts of the cage requiring the animals to walk from the food source to the water source to survive.

[6] = Chemical Abstracts, 74, 96312e (1971); cited from earlier work
[7] = Chemical Abstracts, 78, 132326f (1973); cited from earlier work
[8] = 50 mg/kg rat weight × 29, p.o. once daily, read-out: % Inhibition of Uninjected Paw Volume Inflammation, Days 16-30

CN(C)Cc1cc(C(C)(C)C)c(O)c(C(C)(C)C)c1.Cl [4-[(dimethylamino)methyl]-2,6-bis(1,1-dimethylethyl)phenol hydrochloride]
inhibition in vivo at 50 mg/kg ([1]; Rattus norvegicus, read-out: % Inhibition of Uninjected Paw Volume Inflammation, Days 16-30, 50 mg/kg rat weight × 29, p.o. once daily): 94.8% | Damage Score, Striatum ([2]; scale 0 (no damage)-3 (severe), mean ± SE, 50 mg/kg orally, 2% acacia, time a (15 min pre, 4 h and 24 h postischemia), control 2.6 ± 0.2): 1.1 ± 0.2 | Infarct Volume ([3]; permanent occlusion, 50/10 mg/kg i.v. (per hour), time c (15 min before occlusion, then 24 h), control 136 ± 7): 91 ± 12 (mm)^3 | Infarct Volume ([3]; temporary occlusion, 50/50/10 mg/kg i.p./i.p./i.v. (per hour), time a (15 min before clamping, 15 min before clamp removal, then 24 h), control 114.4 ± 14.1): 47.9 ± 3.4 (mm)^3 | Infarct Volume ([3]; temporary occlusion, 50/50/10 mg/kg i.p./i.p./i.v. (per hour), time b (15 min after clamping, 15 min before clamp removal, then 24 h), control 101.7 ± 9.1): 35.5 ± 5.3 (mm)^3 | Infarct Volume ([3]; temporary occlusion, 50/50/10 mg/kg i.p./i.p./i.v. (per hour), time b, rats fasted overnight, control 61.9 ± 7.9): 23.1 ± 4.9 (mm)^3 | Damage Score, Hippocampus ([4]; scale 0 (no damage)-3 (severe), mean ± SE, 50 mg/kg orally, 2% acacia, time a (15 min pre, 4 h and 24 h postischemia), control 2.7 ± 0.2): 1.7 ± 0.3

CN(C)Cc1cc(C(C)(C)C)c(O)c(C(C)(C)C)c1 [4-[(dimethylamino)methyl]-2,6-bis(1,1-dimethylethyl)phenol]
inhibition in vivo at 50 mg/kg [1, 8]: 59.7% | Damage Score, Striatum ([2]; scale 0-3, mean ± SE, 100 mg/kg orally, 2% acacia, time b (2 h pre, 24 h postischemia), control 2.5 ± 0.5): 0.8 ± 0.3 | Average Life Span [5]: 120 days | Damage Score, Hippocampus ([4]; scale 0-3, mean ± SE, 100 mg/kg orally, 2% acacia, time b (2 h pre, 24 h postischemia), control 2.8 ± 0.2): 0.8 ± 0.4

CCCN(CCC)Cc1cc(C(C)(C)C)c(O)c(C(C)(C)C)c1.Cl [4-[(dipropylamino)methyl]-2,6-bis(1,1-dimethylethyl)phenol hydrochloride]
inhibition in vivo at 50 mg/kg [1, 8]: 64.4% | Damage Score, Striatum ([2]; scale 0-3, mean ± SE, 100 mg/kg orally, 2% acacia, time c (30 min pre, 4 h and 24 h postischemia), control 1.4 ± 0.3): 1.2 ± 0.4 | Infarct Volume ([3]; temporary occlusion, 20/5 mg/kg i.v. (per hour), time d, control 123 ± 14): 143 ± 12 (mm)^3 | Damage Score, Hippocampus ([4]; scale 0-3, mean ± SE, 100 mg/kg orally, 2% acacia, time c (30 min pre, 4 h and 24 h postischemia), control 2.5 ± 0.3): 1.0 ± 0.4

CCNCc1cc(C(C)(C)C)c(O)c(C(C)(C)C)c1.Cl [4-[(ethylamino)methyl]-2,6-bis(1,1-dimethylethyl)phenol hydrochloride]
inhibition in vivo at 5 mg/kg ([1]; 5 mg/kg rat weight × 29, p.o. once daily, read-out: % Inhibition of Uninjected Paw Volume Inflammation, Days 16-30): 27.9% | inhibition in vivo at 10 mg/kg ([1]; 10 mg/kg rat weight × 29, p.o. once daily, read-out: % Inhibition of Uninjected Paw Volume Inflammation, Days 16-30): 19.6% | inhibition in vivo at 20 mg/kg ([1]; 20 mg/kg rat weight × 29, p.o. once daily, read-out: % Inhibition of Uninjected Paw Volume Inflammation, Days 16-30): 50.8% | inhibition in vivo at 25 mg/kg ([1]; 25 mg/kg rat weight × 29, p.o. once daily, read-out: % Inhibition of Uninjected Paw Volume Inflammation, Days 16-30): 96.5% | Damage Score, Striatum ([2]; scale 0-3, mean ± SE, 20 mg/kg / 5 mg/kg per hour i.v., 10% DMSO/TWEEN 80/NaCl, time d (immediately after ischemia, then continuous 24 h), control 2.37 ± 0.28): 1.20 ± 0.42 | Infarct Volume ([3]; permanent occlusion, 20/5 mg/kg i.v. (per hour), time c, control 172 ± 19): 122 ± 12 (mm)^3 | Infarct Volume ([3]; temporary occlusion, 10/5 mg/kg i.v., time f (one hour after clamping, then upon clamp removal for 24 h), control 128 ± 17): 74 ± 8 (mm)^3 | Damage Score, Hippocampus ([4]; scale 0-3, mean ± SE, 20 mg/kg / 5 mg/kg per hour i.v., 10% DMSO/TWEEN 80/NaCl, time d (immediately after ischemia, then continuous 24 h), control 2.83 ± 0.12): 1.23 ± 0.47

CNCc1cc(C(C)(C)C)c(O)c(C(C)(C)C)c1.Cl [4-[(methylamino)methyl]-2,6-bis(1,1-dimethylethyl)phenol hydrochloride]
inhibition in vivo at 50 mg/kg [1, 8]: 119% | Damage Score, Striatum ([2]; scale 0-3, mean ± SE, 10 mg/kg / 10 mg/kg per hour i.v., saline, time d (immediately after ischemia, then continuous 24 h), control 2.6 ± 0.3): 1.97 ± 0.4 | Damage Score, Striatum ([2]; scale 0-3, mean ± SE, 50 mg/kg / 10 mg/kg per hour i.v., saline, time d (immediately after ischemia, then continuous 24 h), control 2.3 ± 0.4): 1.13 ± 0.4 | Infarct Volume ([3]; permanent occlusion, 50 mg/kg i.v. single dose, time e (10 min before occlusion), control 140 ± 23): 123 ± 18 (mm)^3 | Infarct Volume ([3]; permanent occlusion, 10/10 mg/kg i.v. (per hour), time c, control 145 ± 12): 128 ± 11 (mm)^3 | Infarct Volume ([3]; permanent occlusion, 20/5 mg/kg i.v. (per hour), time c, control 133 ± 16): 112 ± 7 (mm)^3 | Infarct Volume ([3]; permanent occlusion, 20/10 mg/kg i.v. (per hour), time c, control 148 ± 9): 90 ± 18 (mm)^3 | Infarct Volume ([3]; permanent occlusion, 50/10 mg/kg i.v. (per hour), time c, control 142 ± 7): 76 ± 12 (mm)^3 | antioxidative activity of liver lipids [6]: increases the antioxidative activity of liver lipids | liver tissue regeneration following a partial hepatectomy [6]: increasing liver tissue regeneration following a partial hepatectomy | Damage Score, Hippocampus ([4]; scale 0-3, mean ± SE, 10 mg/kg / 10 mg/kg per hour i.v., saline, time d (immediately after ischemia, then continuous 24 h), control 2.4 ± 0.3): 0.75 ± 0.3 | Damage Score, Hippocampus ([4]; scale 0-3, mean ± SE, 50 mg/kg / 10 mg/kg per hour i.v., saline, time d (immediately after ischemia, then continuous 24 h), control 2.6 ± 0.3): 0.66 ± 0.3

CNCc1cc(C(C)(C)C)c(O)c(C(C)(C)C)c1 [N-methyl-3,5-di-t-butyl-4-hydroxybenzylamine]
rate of blood deoxygenation [7]: increase the rate of blood deoxygenation
